Tests used:
actin-cofilin complex = test: Native PAGE gel analysis of actin-cofilin complex; format: binding; conditions: for Effective (E50) concentration, disappearance of the actin-cofilin band: native PAGE gels, 25 μM actin-cofilin complex, metal mass without counter ions
Method: Four heavy metal ions (Cd, Cu, Hg and Zn) were examined over the concentration range 1-1000 μg L^−1.
Combinations of actin, cofilin and DNaseI were mixed at equimolar concentrations (˜20-25 μm) in a Eppendorf tube and incubated for 15 min at 22° C. Actin, cofilin, DNaseI and their complexes were then separated on a 10% w/v native gel. […] Instead, the rate of migration is determined by the ratio of charge to volume. Actin (MT 43 kDa) has a net negative charge.

[1] = test system: Sub-mitochondrial Particle (SMP); conditions: cited from earlier work
Fish = conditions: at 96 hr; cited from earlier work
Beef Heart Mitochondria = conditions: cited from earlier work
[2] = test system: Photobacterium phosphoreum; conditions: cited from earlier work
DNA/EtBr complex = test: DNA/EtBr fluorescence emission in solution; format: binding; conditions: 5 μg/ml DNA, 2 μg/ml EtBr
Method: The fluorescence emission of DNA-dye ligands such as ethidium bromide (EtBr) are examined spectroscopically in solution.
Changes in fluorescence intensity were noticeable at 2 μM.

Structure (SMILES) | Effective (E50) concentration, disappearance of the actin-cofilin band (actin-cofilin complex) [µg/L] | Effective (E50) concentration, SMP [1] [µg/L] | Effective (E50) concentration, Fish (Fish) [µg/L] | Effective (E50) concentration, BHM (Beef Heart Mitochondria) [µg/L] | Microtox mean lethal concentration [2] [µg/L] | Concentration at which the actin-cofilin complex is first noticeably affected (actin-cofilin complex; native gel) | Concentration at which changes in fluorescence intensity were noticeable (DNA/EtBr complex) [µM] | Concentration range of concentration-dependent quenching of fluorescent signal (DNA/EtBr complex; excitation 520 nm) [µM] | Density of the actin-cofilin complex (actin-cofilin complex; 250-2500 μg L^−1)
[Cd+2] [Cd^2+] | 800 to 1200 | 520 | 630 | 158 | 41400 |  |  |  | 
[Cu+2] [Cu^2+] | 400 to 600 | 300 | 530 | 93 | 9300 | approximately 200 μg L^−1 |  |  | 
[Cl][Hg][Cl] [HgCl2] |  |  |  |  |  |  | 2 | 1 to 100 | 
[Cl-].[Cl-].[Zn+2] [Zn^2+, ZnCl2] | 900 to 1000 | 1700 | 2990 | 80 | 33000 |  |  |  | decreased the density of the actin-cofilin complex
